Results: patent publication US10941157B2, “Pesticidal compositions and uses thereof” (Gilead Apollo, LLC, priority 2015, dated 2021)
Converted amounts (≈) assume the structure as drawn.

How the values were obtained:
Botrtyis cinerea (Bc) = test: In vitro pathogen growth inhibition assay, Bc; type: cell-based; details: 48 h, ≥90% growth inhibition; 48 hours; vs 2% DMSO control; read-out: Compound Concentration (ppm) sufficient for ≥90% inhibition of Bc
Summary of the method: (§1)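 Value reported is the compound concentration reaching ≥90% growth inhibition, from OD readings at 24 and 48 h after blank subtraction, confirmed visually. Inoculum was spores diluted in 17% V8 medium, except Rs, using 1.5 mm mycelial plugs in ¼ PDB; actual compound concentration corrected via OD600.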

[1] = system: Collectotrichum graminicola (Cg); test: In vitro pathogen growth inhibition assay, Cg; type: cell-based; details: 48 h, ≥90% growth inhibition; 48 hours; vs 2% DMSO control; read-out: Compound Concentration (ppm) sufficient for ≥90% inhibition of Cg
Summary of the method: as §1

Diplodia maydis (Dm) = test: In vitro pathogen growth inhibition assay, Dm; type: cell-based; details: Stenocarpella maydis, 48 h, ≥90% growth inhibition; 48 hours; vs 2% DMSO control; read-out: Compound Concentration (ppm) sufficient for ≥90% inhibition of Dm
Summary of the method: (§2)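 Spores in 17% V8 liquid medium, or 1.5 mm Rs mycelial plugs in ¼ PDB, incubated with compound; final concentration checked by OD600 for precipitation. OD readings at 24 and 48 h, blank-subtracted, plus visual ratings; value is concentration giving ≥90% growth inhibition.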

[2] = system: Fusarium moniliforme (Fm); test: In vitro pathogen growth inhibition assay, Fm; type: cell-based; details: Fusarium verticillioides; ≥90% growth inhibition; 48 hours; vs 2% DMSO control; read-out: Compound Concentration (ppm) sufficient for ≥90% inhibition of Fm
Summary of the method: as §1

[3] = system: Fusarium virguliforme (Fv); test: In vitro pathogen growth inhibition assay, Fv; type: cell-based; details: ≥90% growth inhibition, 48 hours, vs 2% DMSO control, read-out: Compound Concentration (ppm) sufficient for ≥90% inhibition of Fv
Summary of the method: as §2

[4] = system: Phytophthora capsici (Pc); test: In vitro pathogen growth inhibition assay, Pc; type: cell-based; details: 48 h, ≥90% growth inhibition, 48 hours, vs 2% DMSO control, read-out: Compound Concentration (ppm) sufficient for ≥90% inhibition of Pc
Summary of the method: as §2

Rhizoctonia solani (Rs) = test: In vitro pathogen growth inhibition assay, Rs (mycelial plugs); type: cell-based; details: Rhizoctonia solani, 48 h, ≥90% growth inhibition; mycelial plugs; 48 hours; vs 2% DMSO control; read-out: Compound Concentration (ppm) sufficient for ≥90% inhibition of Rs
Summary of the method: as §2

Septoria tritici (St) = test: In vitro pathogen growth inhibition assay, St; type: cell-based; details: Zymoseptoria tritici, 48 h, ≥90% growth inhibition; 48 hours; vs 2% DMSO control; read-out: Compound Concentration (ppm) sufficient for ≥90% inhibition of St
Summary of the method: as §1

[5] = system: Blumeria graminis f. sp. hordei; test: Foliar protection test for barley powdery mildew control; type: in vivo; details: foliar spray on Hordeum vulgare cv. Perry, inoculated 24 hours after treatment, evaluated 7 days later
Summary of the method: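 Protective foliar test: compound atomized onto both leaf surfaces of 6-day-old Hordeum vulgare cv. Perry, followed after 24 h by spore-cloud inoculation from colonized untreated plants. Disease rated on leaves 7 days on, plants held at 20 to 22° C and 70% RH.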

Sphaerotheca fuliginea = test: Foliar protection for cucumber powdery mildew control; type: in vivo; details: foliar spray on Cucumis sativus cv. Straight Eight, inoculated 24 hours after treatment, evaluated 7 days later
Summary of the method: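 Protective foliar spray on 10-day-old Straight Eight cucumbers, with S. fuliginea spores dusted from infected stock plants 24 h after treatment. Disease developed at 23–27 °C, 60% RH and a 16 h photoperiod. Leaves were rated for mildew growth after 7 days; test rates 10 ppm or below.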

[6] = system: Mycosphaerella graminicola (synthetic Septoria tritici); test: Foliar protection test for wheat septoria leaf blotch control; type: in vivo; details: foliar spray on Triticum aestivum cv. WinterHawk, inoculated 1 hour after treatment, evaluated 16 days later
Fusarium graminearum = type: in vivo; details: spray on flowering Triticum aestivum cv. Samson, inoculated 24 hours after treatment, evaluated 14 days later
Puccinia triticina = test: Foliar protection test for wheat leaf rust control; type: in vivo; details: foliar application to wheat (Triticum aestivum cv. Winterhawk), evaluated 10 days later
Phakopsora pachyrhizi = test: Foliar protection test for Asian soybean rust control; type: in vivo; details: foliar application to soybean (Glycine max AG4832), percent disease area evaluated 14 days later

SMILES | IC90 (Botrtyis cinerea (Bc)) | IC90 [1] | IC90 (Diplodia maydis (Dm)) | IC90 [2] | IC90 [3] | IC90 [4] | IC90 (Rhizoctonia solani (Rs)) | IC90 (Septoria tritici (St)) | Barley Powdery Mildew Control at a compound concentration of 10 ppm or lower [5] | Cucumber Powdery Mildew Control at a compound concentration of 10 ppm or lower (Sphaerotheca fuliginea) | Septoria Leaf Blotch Control at a compound concentration of 25 ppm or lower [6] | Wheat Fusarium Head Blight Control at a compound concentration of 25 ppm or lower (Fusarium graminearum) | Wheat Leaf Rust Control at a compound concentration of 10 ppm or lower (Puccinia triticina) | Asian Soybean Rust Control at a compound concentration of 25 ppm or lower (Phakopsora pachyrhizi)
CCc1ccc(F)cc1[C@H](Cn1c(=O)n(C(C)(C)C(=O)NC(C)C)c(=O)c2c(C)c(-n3nccn3)sc21)OC[C@@H](C)C#N [Compound I-281, 2-(1-((R)-2-((S)-2-cyanopropoxy)-2-(2-ethyl-5-fluorophenyl)ethyl)-5-methyl-2,4-dioxo-6-(2H-1,2,3-triazol-2-yl)-1,4-dihydrothieno[2,3-d]pyrimidin-3 (2H)-yl)-N-isopropyl-2-methylpropanamide] | 0.08 µg/mL (≈ 0.131 µM) | 0.08 µg/mL (≈ 0.131 µM) | 2 µg/mL (≈ 3.28 µM) | 0.08 µg/mL (≈ 0.131 µM) | 0.08 µg/mL (≈ 0.131 µM) | > 50 µg/mL | 0.08 µg/mL (≈ 0.131 µM) | > 50 µg/mL | AA (≥85% control of barley powdery mildew) | AA (≥85% control of cucumber powdery mildew) | AA (≥85% control of wheat septoria leaf blotch) | C (from 25 to 49% control of wheat fusarium head blight) | AA (≥85% control of wheat leaf rust) | D (<25% control of Asian soybean rust)
CCc1ccc(F)cc1[C@H](Cn1c(=O)n(C(C)(C)C(=O)NC(C)C)c(=O)c2c(C)c(-n3nccn3)sc21)OC[C@H](C)C#N [Compound I-284, 2-(1-((R)-2-((R)-2-cyanopropoxy)-2-(2-ethyl-5-fluorophenyl)ethyl)-5-methyl-2,4-dioxo-6-(2H-1,2,3-triazol-2-yl)-1,4-dihydrothieno[2,3-d]pyrimidin-3 (2H)-yl)-N-isopropyl-2-methylpropanamide] | 0.4 µg/mL (≈ 0.656 µM) | 0.08 µg/mL (≈ 0.131 µM) | 2 µg/mL (≈ 3.28 µM) | 0.08 µg/mL (≈ 0.131 µM) | 0.4 µg/mL (≈ 0.656 µM) | > 50 µg/mL | 0.08 µg/mL (≈ 0.131 µM) | > 50 µg/mL | AA (≥85% control of barley powdery mildew) | AA (≥85% control of cucumber powdery mildew) | AA (≥85% control of wheat septoria leaf blotch) | C (from 25 to 49% control of wheat fusarium head blight) | AA (≥85% control of wheat leaf rust) | B (from 50 to 69% control of Asian soybean rust)
CCOC(=O)c1sc2c(c1C)c(=O)n(C(C)(C)C(=O)NC(C)C)c(=O)n2C[C@H](OCCS(C)(=O)=O)c1cc(F)ccc1OC [Compound I-285, (R)-ethyl-1-(2-(5-fluoro-2-methoxyphenyl)-2-(2-(methylsulfonyl)ethoxy)ethyl)-3-(1-(isopropylamino)-2-methyl-1-oxopropan-2-yl)-5-methyl-2,4-dioxo-1,2,3,4-tetrahydrothieno[2,3-d]pyrimidine-6-carboxylate] | 2 µg/mL (≈ 3.05 µM) | 0.4 µg/mL (≈ 0.61 µM) | ≥ 2 µg/mL | 0.4 µg/mL (≈ 0.61 µM) | 2 µg/mL (≈ 3.05 µM) | 50 µg/mL (≈ 76.2 µM) | 0.4 µg/mL (≈ 0.61 µM) | ≥ 50 µg/mL | A (from 70% to 84% control of barley powdery mildew) | AA (≥85% control of cucumber powdery mildew) | C (from 25 to 49% control of wheat septoria leaf blotch) | C (from 25 to 49% control of wheat fusarium head blight) | AA (≥85% control of wheat leaf rust) | C (from 25 to 49% control of Asian soybean rust)
COc1ccc(F)cc1[C@H](Cn1c(=O)n(C(C)(C)C(=O)NC(C)C)c(=O)c2c(C)c(-n3nccn3)sc21)OCCS(C)(=O)=O [Compound I-287, (R)-2-(1-(2-(5-fluoro-2-methoxyphenyl)-2-(2-(methylsulfonyl)ethoxy)ethyl)-5-methyl-2,4-dioxo-6-(2H-1,2,3-triazol-2-yl)-1,4-dihydrothieno[2,3-d]pyrimidin-3 (2H)-yl)-N-isopropyl-2-methylpropanamide] | 2 µg/mL (≈ 3.07 µM) | 0.4 µg/mL (≈ 0.615 µM) | 0.4 µg/mL (≈ 0.615 µM) | 0.4 µg/mL (≈ 0.615 µM) | 2 µg/mL (≈ 3.07 µM) | 10 µg/mL (≈ 15.4 µM) | 0.08 µg/mL (≈ 0.123 µM) | ≥ 50 µg/mL | AA (≥85% control of barley powdery mildew) | AA (≥85% control of cucumber powdery mildew) | AA (≥85% control of wheat septoria leaf blotch) | C (from 25 to 49% control of wheat fusarium head blight) | AA (≥85% control of wheat leaf rust) | AA (≥85% control of Asian soybean rust)
CCNC(=O)[C@@H](C)n1c(=O)c2c(C)c(-n3nccn3)sc2n(C[C@H](OCCC#N)c2cc(F)ccc2OC)c1=O [Compound I-289, (R)-2-(1-((R)-2-(2-cyanoethoxy)-2-(5-fluoro-2-methoxyphenyl)ethyl)-5-methyl-2,4-dioxo-6-(2H-1,2,3-triazol-2-yl)-1,4-dihydrothieno[2,3-d]pyrimidin-3 (2H)-yl)-N-ethylpropanamide] | 2 µg/mL (≈ 3.51 µM) | 0.08 µg/mL (≈ 0.14 µM) | 0.4 µg/mL (≈ 0.702 µM) | 0.08 µg/mL (≈ 0.14 µM) | 0.4 µg/mL (≈ 0.702 µM) | ≥ 10 µg/mL | 0.08 µg/mL (≈ 0.14 µM) | > 50 µg/mL | AA (≥85% control of barley powdery mildew) | AA (≥85% control of cucumber powdery mildew) | AA (≥85% control of wheat septoria leaf blotch) | C (from 25 to 49% control of wheat fusarium head blight) | AA (≥85% control of wheat leaf rust) | AA (≥85% control of Asian soybean rust)
